What was measured:
[1] = target: T1, bacterial (E.coli) tRNA guanine transglycosylase (TGT) (Escherichia coli, UniProt P0A847); assay: TGT-catalyzed incorporation of PreQ1 analogs into RNA oligonucleotide hairpins (LC / HRMS); assay type: biochemical
T1 construct: His6 (C); made in house; host or cells: E. coli BL21
Procedure: General TGT reaction with RNA oligonucleotide hairpins TGT reaction conditions were adapted from a previously reported literature procedure.^1 An eppendorf tube containing 10 μM RNA oligonucleotide, 100 μM PreQ1 analog, and 10 μM TGT enzyme were prepared in a final volume of 50 μL of TGT reaction buffer. The reactions were incubated at 37° C. for a minimum of 2 hours. The reactions were halted by chilling samples to 4° C. or freezing at −80° C. until purified or analyzed.
Liquid chromatography and mass spectroscopy analysis of preQ1 modified RNA hairpins. Samples were first prepared according to the general procedure. Samples were allowed to react for 6 hours and frozen at −80° C. until analyzed (PreQ1-Biotin required 24 hours for completion). Samples were diluted 1:2 with milli-Q water and injected onto a clarity Oligo-MS column (Phenomenex, Torrance, Calif.) and analyzed by HPLC according to the following gradient: (A=Milli-Q water containing 20% hexafluoroisopropanol (HFIP) and 0.1% TEA, B=methanol), Initial conditions 95% A, 5% B, hold 2 min then a linear gradient starting at 2 min and ending at 10 min with 45% A, 55% B. Samples were monitored at 260 nm as well as either 505 nm or 700 nm as appropriate when fluorophore PreQ1 analogs were employed. HRMS samples were collected in negative ion mode and analyzed in a similar manner by combining the mass spectrum traces across the peak of interest. Raw mass spectrum were deconvoluted using MagTran software package v.

[2] = target: T2, streptavidin M-280 DYNABEADS (Streptomyces avidinii, UniProt P22629); assay: DYNABEADS streptavidin pull-down of PreQ1-Biotin modified transcripts; assay type: binding; details: mCherry-TAG vs mCherry-TAGΔC after TGT labeling (FIGS. 3C and 10)
T2 construct: purchased Life Technologies M280
T2 sequence (P22629 25-183): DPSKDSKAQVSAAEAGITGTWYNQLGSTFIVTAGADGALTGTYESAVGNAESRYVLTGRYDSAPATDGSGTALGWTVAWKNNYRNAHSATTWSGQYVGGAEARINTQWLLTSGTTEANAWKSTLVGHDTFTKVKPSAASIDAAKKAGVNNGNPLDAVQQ
Procedure: DYNABEADS® Streptavidin pull-down of PreQ1-Biotin modified transcripts. mCherry-TAG and mCherry-TAGΔC transcripts was incubated in a mixture of 1 μM RNA, 100 μM preQ1-Biotin, and 1 μM TGT (omitted in control samples) in TGT reaction buffer at 37° C. for 4 hours. 1 unit of RNAseIn (Promega, Madison, Wis.) was added to the reaction to prevent transcript degradation. Samples were drop dialyzed through 0.02 μm MF-Millipore membrane filter (Millipore, Billerica, Mass.) using 25 mL Milli-Q water and subsequently ethanol precipitated by addition of 10% volume of 3M sodium acetate and 2.5 volumes 95% ethanol and incubation at […] overnight. After centrifugation at 4° C. (16,100 g, 30 min), the resulting RNA pellet was resuspended in water, and the concentration of RNA was quantified.
Streptavidin M280 DYNABEADS® (Life Technologies, Carlsbad, Calif.) were washed according to manufacturer's instructions for RNA applications using binding and washing (B&W) buffer. Beads were blocked in B&W buffer with yeast tRNA (0.1 mg/100 uL of beads). Following the blocking step, beads were washed twice with B&W buffer. Pull down was then performed by incubation of 1 μg of prepared RNA with 10 uL of washed beads in B&W buffer at room temperature for 30 minutes with constant rotation. The beads were then washed three times with B&W buffer. […] Samples were then analyzed by 4% denaturing PAGE.

[3] = target: T3, streptavidin (Streptomyces avidinii, UniProt P22629); assay: Streptavidin gel shift of RNA hairpins modified with PreQ1-Biotin; assay type: binding; details: ECY-A1 vs ECY-A1ΔC, with and without TGT; 15% denaturing PAGE (FIG. 2C)
T3 construct: purchased Life Technologies
T3 sequence (P22629 25-183): as above
Procedure: Streptavidin gel shift of RNA hairpins. ECY-A1 RNA and ECY-A1ΔC was incubated in a mixture of 10 μM RNA, 100 μM preQ1-Biotin, and 1 μM TGT (omitted in control samples) in TGT reaction buffer at 37° C. for 24 hours. After the reactions were complete, the RNA was precipitated by addition of 10% volume of 3M sodium acetate and 2.5 volumes 95% ethanol and incubation at −20° C. overnight. After centrifugation at 4° C. (16,100 g, 30 min), the resulting RNA pellet was resuspended in water, and the concentration of RNA was quantified. The prepared RNA was then incubated in the presence of streptavidin (Life Technologies, Carlsbad, Calif.) at 37° C. for 1 hour in a mixture containing the following: 10 mM Tris (pH 8.1), 2.5 μM RNA, and 50 μM streptavidin. 1X RNA loading dye (NEB, Ipswitch, Mass.) was added to the sample (without heat denaturation) and samples were analyzed by 15% denaturing PAGE.

[4] = test system: mCherry-TAG RNA endogenously expressed in CHO cells; assay: Fixed cell labeling of endogenously expressed mCherry-TAG transcript; assay type: cell-based, Chinese hamster; details: 50 μM PreQ1-Cy7, with TGT and mCherry-TAG plasmid vs controls without (FIG. 4)
Procedure: Fixed Cell Labeling of Endogenously Expressed mCherry-ECY-A1 Transcript. Chinese Hamster Ovary (CHO) cells (CRL-9606, ATCC, Manassas, Va.) were cultured in Ham's F-12K media (Life Technologies, Carlsbad, Calif.) and kept under 20 passages from the ATCC standard line. CHO cells were plated at an initial density of 10,000 cells per well in a Nunc Lab-Tek 8 well chamber slide (Thermo Scientific, Waltham, Mass.). Cells were allowed to adhere overnight and washed with Opti-MEM media (Life Technologies, Carlsbad, Calif.) and subsequently transfected with […] of mCherry-TAG plasmid per well with 1.5 μL of Lipofectamine® 2000 (Life Technologies, Carlsbad, Calif.) in Opti-MEM as per manufacture's protocol. Control wells lacking transfection were treated and washed with Opti-MEM in the absence of DNA and lipofectamine®. After overnight transfection, the cells were washed twice with PBS (200 μL each) and fixed with 100 μL of a 3.7% paraformaldehyde in PBS solution for 10 minutes at room temperature. Cells were then permeabilized by treatment with 100 μL of 0.1% Triton X-100 in PBS for 20 minutes at room temperature and washed 2×200 μL with fresh PBS. Cells were then treated for four hours at 37° C. with 100 μL of TGT reaction buffer containing 50 μM PreQ1-Cy7 either with or without 10 μM TGT enzyme added. […] Images were subsequently analyzed and processed using ImageJ (NIH, rsbweb.nih.gov).

[5] = target: T1, bacterial (E.coli) tRNA guanine transglycosylase (TGT); assay type: biochemical; details: TGT present; 4% denaturing PAGE (FIG. 3A, FIG. 7)
Procedure: General labeling reaction procedure for fluorescence spectra and gel analysis. A 25 μL reaction was setup in a small eppendorf tube containing 100 nM RNA transcript, 50 μM PreQ1 analog, and 1μM TGT in TGT reaction buffer. 1 unit of RNaseln (Promega, Madison, Wis.) was added to each reaction to prevent degradation of the transcript. The reaction was allowed to proceed for 4 hours, after which the sample was cooled to 4° C. and either used directly or stored at −80° C. until further analyzed.
Gel Analysis of TGT reactions with PreQ1 analogs. […] After the reactions were complete, the RNA was precipitated by addition of 10% volume of 3M sodium acetate and 2.5 volumes 95% ethanol. The samples were then precipitated at −80° C. for 2 hours after which they were centrifuged at 16,100 g for 30 minutes at 4° C. The ethanol was carefully pipetted away and the RNA pellet was allowed to air dry for 10 minutes on the bench. The pellet was resuspended in 10 μL of 1X RNA loading dye (NEB, Ipswitch, Mass.), heated to 95° C. for 2 minutes, placed on ice for 20 minutes, and subsequently loaded into a freshly poured denaturing 4% polyacrylamide gel (4% polyacrylamide in 1X TBE buffer with 8% urea) and run at 120 V for approximately 2 hours until the xylene cyanol blue dye had reached the bottom of the gel. […]

[6] = target: T1, bacterial (E.coli) tRNA guanine transglycosylase (TGT); assay: Fluorescence emission spectra of PreQ1-TO probe turn-on with mCherry-TAG RNA; assay type: biochemical
Procedure: Fluorescence emission spectra of PreQ1-TO probe turn-on with mCherry-TAG RNA. Fluorescence emission spectra were collected in a similar fashion to that described previously for the short RNA hairpins. 25 μL reactions were setup with 10 μM TGT enzyme, 20 μM PreQ1-TO, and 100 nM transcript RNA and incubated at 37° C. for 2 hours. Samples were then diluted 30-fold and measured under the same conditions and parameters as that of the short hairpins.

[7] = target: T1, bacterial (E.coli) tRNA guanine transglycosylase (TGT); assay: Fluorescence emission spectra of PreQ1-TO probe turn-on with ECY-A1 hairpin; assay type: biochemical; details: RNA hairpin ECY-A1; normalized to PreQ1-TO in the absence of RNA and TGT (FIG. 2B)
Procedure: Fluorescence emission spectra of PreQ1-TO probe turn-on with ECY-A1 hairpin. Samples of ECY-A1, ECY-A1ΔC, and ECY-X1 were first prepared in a similar fashion to the general protocol except only 20 μM PreQ1-TO was employed to avoid non-specific binding to the hairpins. Samples were allowed to react for 2 hours, verified to be at completion by HPLC, and diluted 30-fold into TGT reaction buffer. Spectra were then collected on a Fluoromax-P spectrophotometer by excitation at 501 nm and scanning emission from 510 to 600 nm with excitation and emission slit width at 5 nm and an integration time of 1 s. All spectra were background subtracted from TGT reaction buffer and Normalized against the fluorescence intensity values of a sample containing an analogous concentration of PreQ1-TO (0.667 μM) in TGT reaction buffer.

T1 sequence (P0A847 whole entry, added parts left off): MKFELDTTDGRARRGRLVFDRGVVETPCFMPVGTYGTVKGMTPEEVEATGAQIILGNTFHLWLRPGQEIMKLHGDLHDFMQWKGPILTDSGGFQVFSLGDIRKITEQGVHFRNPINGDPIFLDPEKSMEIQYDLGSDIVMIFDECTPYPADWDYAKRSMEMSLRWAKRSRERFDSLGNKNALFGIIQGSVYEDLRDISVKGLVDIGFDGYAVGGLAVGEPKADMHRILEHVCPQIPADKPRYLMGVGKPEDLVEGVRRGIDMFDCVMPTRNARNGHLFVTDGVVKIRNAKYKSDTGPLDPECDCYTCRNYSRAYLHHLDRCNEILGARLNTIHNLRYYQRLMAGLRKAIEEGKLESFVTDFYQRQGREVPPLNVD

## Nc1nc2[nH]cc(CNCCOCCOCCOCCNC(=O)CCCC[C@@H]3SC[C@@H]4NC(=O)N[C@@H]43)c2c(=O)[nH]1 [PreQ1-Biotin]
[1]; 37° C., other analogs 6 hour incubation
  reaction time required for completion of TGT labeling of ECY-A1: 24 h
[2]
  RNA recovered in streptavidin pull-down: single RNA band corresponding to transcript only when mCherry transcript contained the ECY-A 1 hairpin
[3]
  streptavidin gel shift of ECY-A1 modified by TGT: biotin remains functional as an affinity tag

## CN1/C(=C/C=C2C=C(/C=C/C3=[N+](CCCCCC(=O)NCCOCCOCCOCCNCc4c[nH]c5nc(N)[nH]c(=O)c45)c4ccccc4C3(C)C)CCC/2)C(C)(C)c2ccccc21.O=C[O-] [PreQ1-Cy7]
[4]
  staining of fixed, permeabilized CHO cells: significantly greater staining of fixed cells
[5]
  fluorescent labeling of mCherry-TAG transcript: labeling of the transcript took place

## CN1/C(=C/c2cc[n+](CCCCCC(=O)NCCOCCOCCOCCNCc3c[nH]c4nc(N)[nH]c(=O)c34)c3ccccc23)Sc2ccccc21.O=C[O-] [PreQ1-TO]
[1]; ECY-A1 compared with ECY-A1ΔC and ECY-X1 (FIG. 20B)
  RNA substrate selectivity of incorporation: selectively incorporated into ECY-A1
[1]; RNA hairpins ECY-A1ΔC and ECY-X1, with TGT, by LC/MS
  incorporation of PreQ1-TO into alternative RNA hairpins: unable to detect incorporation
[6]; TGT present vs absent (FIG. 3B)
  fluorescence intensity with in vitro transcribed mCherry-TAG RNA: significant increase in fluorescence intensity
[6]; in the presence of enzyme
  fluorescence turn-on with mCherry-TAGΔC transcript: negligible fluorescence turn-on
[7]
  increase in TO fluorescence intensity upon covalent incorporation: ~40 fold

Reference: patent US11267842B2, “Enzymatic modification of nucleic acids” (The Regents of the University of California, priority 2015, dated 2022)
